Structures are written as SMILES. Values after ≈ are worked out from the molar mass of the structure shown.

Data set [1] in a line: Determination of Kinetic Solubility. The class given is physicochemical. The following applies: phosphate-buffered saline, aqueous buffer, kinetic from dmso stock; PBS pH 7.4, 2% final DMSO, 25° C., two hours; effective range approximately 2-400 μM. As to the method: A 20 mM stock solution of the test compound in 100% DMSO dilutions were prepared to a theoretical concentration of 400 μM in duplicates in phosphate-buffered saline pH 7.4 (138 mM NaCl, 2.7 mM KCl, 10 mM K-phosphate) with 2% final DMSO. The experimental compound dilutions in PBS were further allowed to equilibrate at 25° C. on a thermostatic shaker for two hours and then filtered through HTS filter plates using a vacuum manifold. The filtrates of test compounds were diluted 2-fold with acetonitrile with 2% DMSO before measuring.
In parallel, compound dilutions in 50% acetonitrile/PBS were prepared to theoretical concentrations of 0 μM (blank), 10 μM, 25 μM, 50 μM, 100 μM, and 200 μM with 2% final DMSO to generate calibration curves. Ondansetron was used as reference compound to control proper assay performance 200 μl of each sample was transferred to 96-well plate and measured in 200-550 nm range with 5 nm step.
The concentrations of compounds in PBS filtrate were calculated using a dedicated Microsoft Excel calculation script. Proper absorbance wavelengths for calculations were selected for each compound manually based on absorbance maximums (absolute absorbance unit values for the minimum and maximum concentration points within 0-3 OD range). Each of the final datasets was additionally visually evaluated by the operator and goodness of fit (R2) was calculated for each calibration curve.

Data set [2] relates to cisplatin induced acute kidney injury (CI-AKI). As to the kind of experiment: cisplatin induced acute kidney injury (CI-AKI) in mice, Compound 3. Format: in vivo, C57BL/6J mice. As to the method: The aim of the study was to investigate the efficacy of test compounds in the model of cisplatin induced acute kidney injury (CI-AKI) in mice.
Serum analysis for urea (BUN) was performed on the 5th day and 9th days after cisplatin administration. The mean body weight loss per group was calculated every day of the study as percentage loss of initial (day 0) weight for each individual animal.
Study design, animal selection, handling and treatment were all in accordance with the CRO's study protocols and Institutional Animal Care and Use Guidelines Animal treatment and serum samples preparation were conducted by the Animal Laboratory personnel at the CRO. 60 female C57BL/6J mice 9-12 weeks old were randomized by body weight and divided into 2 groups, 30 animals each. Body weights ranged from 13.9 to 22.0 g with an average body weight across all groups 17.75 g (SD=1.30; CV=7.3%). Each mouse was treated with a single dose via IP route of administration with cisplatin at the dose of 11 mg/kg on the day 0 of the study. […] The mice in Group 1 remained untreated after the cisplatin injection until the terminal sacrifice.
Cisplatin was administered without dilution as a factory-made 1 mg/ml solution for infusion at the injection volume of 11 ml/kg for the dose of 11 mg/kg. […] Only freshly prepared formulation was used for each dosing; each working formulation batch was prepared immediately prior to the administration. The working formulations were sterile filtered using 0.2 μm cellulose acetate syringe filters before injections. The dosing volume for the test compound was 5 ml/kg of body weight. The working formulations were administered as transparent clear solutions. Intraperitoneal (IP) route of administration was used in the study. Urea (BUN) was determined in the serum using a commercial kit according to the manufacturer's instructions. […] The rate of absorbance change at λ=340 nm is proportional to the urea concentration. […] Creatinine was measured using mModified Jaffe's method, without deproteinization. […]

In data set [3] the test system is Ischemia-Reperfusion Induced Acute Kidney Injury (IRI-AKI). As to the kind of experiment: Ischemia-Reperfusion Induced Acute Kidney Injury (IRI-AKI) in rats. The class given is in vivo, Sprague Dawley male rats. Conditions: 10 mg/kg IV, seven days repeated; 60 minutes bilateral renal occlusion; 3 days after IRI; vs Vehicle treated group. How it is done: The aim of the study was to investigate the efficacy of test compounds in the model of Ischemia-Reperfusion Induced Acute Kidney Injury (IRI-AKI) in Sprague Dawley male rats. IRI-AKI model was developed in experimental animals by applying bilateral renal occlusion. The duration of the occlusion was equal 60 minutes. For instance, rhe effects of seven days repeated intravenous (IV) administration of compound 22 of 10 mg/kg on pathology dynamics in rats exposed to IRI-AKI was assessed. […] Serum analysis for creatinine was performed one day prior to ischemia-reperfusion surgery, 24 hours after, and on the 3rd, 5th, and 7th day after IRI-AKI intervention. Study design, animal selection, handling and treatment were all in accordance with the CRO's study protocols and Institutional Animal Care and Use Guidelines Animal treatment and serum samples preparation were conducted by the Animal Laboratory personnel at the CRO. 28 male Sprague Dawley rats 11-14 weeks old were randomized by body weight All experimental animal were anesthetized prior to surgical intervention by Telazol at the dose of 40 mg/kg body weight and Xylazine at the dose of 7 mg/kg body weight. Acute renal injury model was achieved by performing bilateral renal occlusion. […] Creatinine was measured using mModified Jaffe's method, without deproteinization. […]

Data set [4] deals with cisplatin-induced acute kidney injury (CI-AKI). Description: cisplatin-induced acute kidney injury (CI-AKI) mouse model, Compound 22. The class given is in vivo, C57BL/6J mice. The following applies: for gradual recovery of mean body weight: cisplatin 11 mg/kg IP Day 0. How it is done: The aim of the study was to investigate the efficacy of test compound(s) in a (mouse) model for acute kidney injury. Specifically, the study investigated the efficacy of test compound(s) in cisplatin-induced acute kidney injury (CI-AKI) mouse model. For example, the effect of daily repeated intraperitoneal (IP) administration of Compound 22 at doses of 50 mg/kg for 7 consecutive days in four different treatment regimens on development of pathology in mice in CI-AKI model was evaluated. Serum analysis for urea (BUN) was performed on the 5th day and 12th days after cisplatin administration. The mean body weight loss per group was calculated every day of the study as percentage loss of initial (day 0) weight for each individual animal.
Study design, animal selection, handling and treatment were all in accordance with the CRO's study protocols and Institutional Animal Care and Use Guidelines Animal treatment and serum samples preparation were conducted by the Animal Laboratory personnel at the CRO. 100 female C57BL/6J mice 11-14 weeks old were randomized by body weight and divided into five groups, 20 animals each. Body weights ranged from 16.9 to 22.5 g with an average body weight across all groups 19.54 g (SD=1.04; CV=5.3%). Each mouse was treated with a single dose via IP route of administration with cisplatin at the dose of 11 mg/kg on the day 0 of the study. The mice in Group 2 and 4 were repeatedly treated with Compound 22 at the dose of 50 mg/kg with an interval of 24 h for seven consecutive days starting from Day 2 or Day 0 of the study, respectively. […]
To induce acute kidney injury, Cisplatin was administered without dilution as a factory-made 1 mg/ml solution for infusion at the injection volume of 11 ml/kg for the dose of 11 mg/kg. […] Urea (BUN) was determined in the serum using a commercial kit according to the manufacturer's instructions. […] The rate of absorbance change at λ=340 nm is proportional to the urea concentration. […]

Setting [5] is: 50 mg/kg IP, 5th day after the cisplatin injection.

One may read the kinetic solubility as the concentration staying in solution when a stock, usually in DMSO, is diluted into the medium. In data set [1], `N[C@@H](COC(=O)CCCSc1ccccc1)C(=O)N[C@H](CCC(=O)O)C(=O)O.O=C(O)C(F)(F)F` [Compound 21] came in with a kinetic solubility at 2 h above 400 µM.
`O=C(CCCSc1ccccc1)OCCNCCO` [Compound 16]: in data set [1], the kinetic solubility at 2 h was above 400 µM.
For `CCN1CCC(OC(=O)CCCSc2ccccc2)CC1.O=C(O)C(F)(F)F` [Compound 1, 1-ethylpiperidin-4-yl 4-(phenylsulfanyl)butanoate], the kinetic solubility at 2 h in data set [1] is above 400 µM.
In the case of `CN(C)CCOC(=O)CCCSc1ccccc1` [Compound 3, 2-(dimethylamino)ethyl 4-(phenylsulfanyl)butanoate], in data set [2] (setting [5]), the “mean level of creatinine in serum compared to G1” value is given as “significantly less” and the “mean level of urea in serum compared to G1” value is listed as “significantly less”. The “gradual recovery of mean body weight” value in data set [2] (G2: 50 mg/kg IP every 24 h for seven days starting Day 2, cisplatin 11 mg/kg IP Day 0) is recorded as “beginning from the sixth day of the study”.
`NCCCC[C@@H](N)C(=O)NCCOC(=O)CCCSc1ccccc1.O=C(O)C(F)(F)F.O=C(O)C(F)(F)F` [Compound 23]: the kinetic solubility at 2 h in data set [1] came to 399 µM.
Consider `C[C@H](CN(C)C)OC(=O)CCCSc1ccccc1.O=C(O)C(F)(F)F` [Compound 18], for which the solubility (kinetic) at 2 h in data set [1] was found to be 362 µM.
For `C[N+](C)(C)CCOC(=O)CCCSc1ccccc1.[Cl-]` [Compound 22, N,N,N-trimethyl-2-{[4-(phenylsulfanyl)butanoyl]oxy}ethan-1-aminium chloride], the “Creatinine level in serum” value in data set [3] is “significantly decreased”. Further, in data set [1], the solubility (kinetic) at 2 h worked out at 398 µM. Further, the entries for the “gradual recovery of mean body weight” value in data set [4] (G2-G3: 50 mg/kg IP once or twice a day for seven days starting Day 2) and in data set [4] (G4-G5: 50 mg/kg IP once or twice a day for seven days starting Day 0) were “beginning from the fifth day of the study” and “beginning from the seventh day of the study”, respectively. The “mean level of urea in serum compared to G1” value in data set [4] (G2-G5, 50 mg/kg IP, 5th day after the cisplatin injection, vs untreated G1) is given as “significantly less”.
`CC(C)[C@@H](N)C(=O)NCCCOC(=O)CCCSc1ccccc1` [Compound 24] returned a kinetic solubility at 2 h in data set [1] of 390 µM (≈ 137 µg/mL).
`O=C(O)CC[C@@H](NC(=O)CCCSc1ccccc1)C(=O)O` [Compound 5]: the solubility (kinetic) at 2 h in data set [1] stood at 396 µM (≈ 129 µg/mL).
With `O=C(O)C[C@@H](OC(=O)CCCSc1ccccc1)C(=O)O` [Compound 19], the kinetic solubility at 2 h in data set [1] was above 400 µM.
As to `NCCC[C@H](NC(=O)CCCSc1ccccc1)C(=O)N[C@@H](CC(=O)O)C(=O)O.O=C(O)C(F)(F)F` [Compound 9], the kinetic solubility at 2 h in data set [1] was 383 µM.
Take `CN1CCN(CCOC(=O)CCCSc2ccccc2)CC1.O=C(O)C(F)(F)F` [Compound 13]: in data set [1], the solubility (kinetic) at 2 h was above 400 µM.
As to `NCCC[C@@H](NC(=O)[C@@H](CCC(=O)O)NC(=O)CCCSc1ccccc1)C(=O)O.O=C(O)C(F)(F)F` [Compound 12], in data set [1], the solubility (kinetic) at 2 h is above 400 µM.
Turning to `O=C(CCCSc1ccccc1)O[C@@H]1CCNC1.O=C(O)C(F)(F)F` [Compound 17], the kinetic solubility at 2 h in data set [1] is above 400 µM.
In data set [1], `O=C(O)CC[C@H](NC(=O)[C@H](CO)NC(=O)CCCSc1ccccc1)C(=O)O` [Compound 20] came in with a kinetic solubility at 2 h above 400 µM.
With `CN1CCC(C)(OC(=O)CCCSc2ccccc2)CC1.O=C(O)C(F)(F)F` [Compound 2, 1,4-dimethylpiperidin-4-yl 4-(phenylsulfanyl)butanoate], in data set [1], the solubility (kinetic) at 2 h is above 400 µM.
`CN1CC2(CC(OC(=O)CCCSc3ccccc3)C2)C1` [Compound 15]: the kinetic solubility at 2 h in data set [1] is at least 400 µM.
In data set [1], `NCCC[C@@H](NC(=O)CCCSc1ccccc1)C(=O)N[C@H](CCC(=O)O)C(=O)O.O=C(O)C(F)(F)F` [Compound 11] came in with a solubility (kinetic) at 2 h of 391 µM.
Take `Cl.NCCC[C@@H](NC(=O)CCCSc1ccccc1)C(=O)O` [Compound 8]: in data set [1], the kinetic solubility at 2 h was 383 µM.
Compound `O=C(CCCSc1ccccc1)OCC(O)CO` (stereo not shown) [Compound 6] returned a solubility (kinetic) at 2 h in data set [1] above 400 µM.
For `O=C(CCCSc1ccccc1)OCCOCCO` [Compound 7], in data set [1], the kinetic solubility at 2 h stood at 385 µM (≈ 109 µg/mL).
Same read-out and setting: under `O=C(O)C[C@@H](NC(=O)CCCSc1ccccc1)C(=O)O` [Compound 14] stands 387 µM (≈ 120 µg/mL).

The values are drawn from patent publication US20230278953A1, “WATER SOLUBLE PRODRUGS OF PTBA FOR USE IN HDAC INHIBITION AND ENHANCING RENAL RECOVERY FOLLOWING ACUTE KIDNEY INJURY” (KLOTHO THERAPEUTICS, INC., priority 2020, published 2023).
